One experiment deals with human TSHR (Homo sapiens, UniProt P16473). As to the kind of experiment: HitHunter cAMP XS+ assay, cAMP Hunter cell line TSHR. Type of experiment: cell-based. The settings on record: for RLU: replicates (1),(2). An excerpt: Results are reported as raw RLU values and represent the
mean ± SEM of 2 technical replicates.

The test system of experiment [1] is chimera RXFP2-1 (extracellular domain of RXFP2, transmembrane domain of RXFP1). Briefly: HTRF cAMP assay in HEK293T cells transiently transfected with chimera RXFP2-1. It counts as cell-based, human. The protocol: Fig. 2 6641 is an allosteric agonist of RXFP2. a HEK-RXFP2 cells co-treated with serial dilutions of INSL3 B dimer antagonist and 30 nM INSL3 or 0.28 µM 6641. HTRF cAMP dose-response inhibition curves were normalized to activity without antagonist co-treatment as 0% inhibition. b HTRF cAMP assay in HEK293T cells transiently transfected with WT or chimeric receptors. Chimera RXFP2-1 contains the extracellular domain of RXFP2 and the transmembrane domain of RXFP1, while chimera RXFP1-2 contains the extracellular domain of RXFP1 and the transmembrane domain of RXFP2. For each receptor, cAMP response induced by INSL3 and 6641 was normalized to FSK (2 µM) as 100% efficacy and DMSO vehicle as 0% efficacy. Emax and EC50 were calculated using four parameter nonlinear fit dose-response curves. Results are expressed as mean ± SEM of 3 independent experiments. Diagrams of the chimeric receptors were produced using GPCRdb.org[58], [59].
Complementary RXFP2-1 and RXFP1-2 chimeric receptors were used to further investigate the involvement of the RXFP2 extracellular and transmembrane domains on 6641 activity. RXFP2-1 has the extracellular domain of RXFP2 and transmembrane domain of RXFP1, and RXFP1-2 is its complement.
The HTRF Gs dynamic cAMP assay kit (CisBio, Bedford, MA) was used to measure intracellular cAMP accumulation in HEK293T cells (ATCC, Manassas, VA)[56]. […] The cell stock was verified mycoplasma free and authenticated by ATCC. Transient transfection was accomplished by treating cells in a 6-well plate with a mixture of 2 μg plasmid and 6 μL Lipofectamine 2000 (Invitrogen, Waltham, MA) per manufacturer’s protocol and incubating overnight. For cAMP measurement in 96-well format, HEK293T cells stably transfected with human RXFP2 (HEK-RXFP2), human RXFP1 (HEK-RXFP1), mouse Rxfp1 (HEK-Rxfp1) or transiently transfected with human RXFP1-RXFP2 chimeric receptors were seeded between 7500 and 30,000 cells per well, depending on cell line responsiveness, in serum-free DMEM medium and incubated overnight at 37 °C, 5% CO2. After 18 h, cells were treated with a titration of compound, 2 μM forskolin, or DMSO vehicle. Control wells were also treated with a titration of INSL3 (Phoenix Pharmaceuticals, Burlingame, CA) or human recombinant relaxin 2 (Peprotech, Cranbury, NJ). For the RXFP2 antagonist experiment, cells were co-treated with 0.28 μM compound or 30 nM INSL3 and a titration of the INSL3 B dimer antagonist[38],[39]. For the INSL3 allosteric modulation experiment, cells were co-treated with 0.025, 0.0025, or 0.00025 μM of compound and a titration of INSL3. […] Plates were incubated for 1 h at room temperature and the signal was read on a CLARIOstar plate reader (BMG Labtech, Ortenberg, Germany) at 665 and 620 nm emission wavelengths.
In general terms: In TR-FRET formats the signal depends on donor and acceptor labels being close together.

The next experiment deals with trabecular bone of femur. As to the kind of experiment: Micro-CT of trabecular bone in femur after 8-week oral treatment. It counts as in vivo, mouse. The arrangement: Mat.D / Tb.N / Tb.Th / Tb.Sp / Conn.D: unit not given here.
[2] abbreviates: femur trabecular bone, 8-week oral treatment, individual mice.

Several values for one entry are separate records, joined by “and”; a condition that tells them apart may be missing. Equal entries are not always repeated. Entries after “also recorded” stand apart in the source; their conditions may differ.

human TSHR, sequence (P16473 21-764): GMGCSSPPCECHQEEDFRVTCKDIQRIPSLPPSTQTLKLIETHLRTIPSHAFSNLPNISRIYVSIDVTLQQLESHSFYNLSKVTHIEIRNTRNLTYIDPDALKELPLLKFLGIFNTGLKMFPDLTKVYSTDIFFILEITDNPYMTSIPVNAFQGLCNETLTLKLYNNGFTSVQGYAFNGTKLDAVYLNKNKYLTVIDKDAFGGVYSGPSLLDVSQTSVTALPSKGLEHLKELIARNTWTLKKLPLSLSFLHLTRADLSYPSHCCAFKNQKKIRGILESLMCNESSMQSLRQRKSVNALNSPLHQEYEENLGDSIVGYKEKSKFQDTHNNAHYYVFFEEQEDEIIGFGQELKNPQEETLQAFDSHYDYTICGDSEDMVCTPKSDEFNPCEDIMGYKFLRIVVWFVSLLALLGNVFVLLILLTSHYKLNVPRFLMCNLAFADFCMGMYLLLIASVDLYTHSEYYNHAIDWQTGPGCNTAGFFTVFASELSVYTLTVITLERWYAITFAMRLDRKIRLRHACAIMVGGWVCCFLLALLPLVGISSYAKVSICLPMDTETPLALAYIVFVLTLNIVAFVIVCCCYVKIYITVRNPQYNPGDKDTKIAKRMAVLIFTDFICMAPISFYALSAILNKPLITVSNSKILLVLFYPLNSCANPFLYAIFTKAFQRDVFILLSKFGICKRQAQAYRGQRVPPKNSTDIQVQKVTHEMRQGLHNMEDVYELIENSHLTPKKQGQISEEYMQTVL

On to `O=C1Nc2ccc(-c3cc(C(F)(F)F)cc(C(F)(F)F)c3)cc2C(=O)N2CCN(C(=O)COc3ccc(OC(F)(F)F)cc3I)C[C@@H]12` [compound 6641], for which the “cAMP response through TSHR” value at human TSHR (Hit Hunter cAMP assay) is reported as “did not result in an increase of cAMP level”. Also, the RLU was 1000 RLU and 1240 RLU at human TSHR (Log [M] -4.70); 1000 RLU and 1040 RLU at human TSHR (Log [M] -5.18); 960 RLU on human TSHR (Log [M] -5.65); 1040 RLU at human TSHR (Log [M] -6.13); 1200 RLU on human TSHR (Log [M] -6.61); 880 RLU on human TSHR (Log [M] -7.08). The RLU on human TSHR (Log [M] -7.56) is 920 RLU and 1000 RLU; on human TSHR (Log [M] -8.04) it was 880 RLU; at human TSHR (Log [M] -8.52) it was 1080 RLU and 920 RLU; on human TSHR (Log [M] -8.99), 960 RLU and 1040 RLU. Moreover, the “EC50 (1)-(3)” value in experiment [1] (6641, individual experiments) was “Inactive”. Besides, the “EC50 (AVERAGE)” value in experiment [1] (6641, mean of 3) is “Inactive”. In addition, the “Emax (1)-(3)” value in experiment [1] (individual experiments, FSK (2 µM) = 100% efficacy) is recorded as “Inactive”. Besides, in experiment [1] (mean (± SEM) of 3, FSK (2 µM) = 100% efficacy), the “Emax (AVERAGE)” value is given as “Inactive; also recorded: did not stimulate cAMP production”. For the same compound, the “femur trabecular parameters (micro-CT)” value with trabecular bone of femur (10 mg/kg PO 3 times per week, 8 weeks) is listed as “no changes”. Also, the “BV/TV (%)” value with trabecular bone of femur (setting [2]) was 4.31% and 3.06% and 3.16% and 4.83% and 2.23% and 3.75% and 3.15% and 4.04% and 1.79% and 1.82% and 3.85% and 4.53% and 2.18% and 3.86% and 3.36%. Also, the Conn.D with trabecular bone of femur (setting [2]) was 30.1255 and 5.8494 and 15.74 and 19.1725 and 7.6938 and 27.3442 and 18.8338 and 25.1693 and 0 and -0.6363 and 15.6001 and 25.2137 and 3.3792 and 27.5856 and 14.5139. The Mat.D in the experiment on trabecular bone of femur (setting [2]) is 834.454 and 848.06 and 875.94 and 870.004 and 796.836 and 823.449 and 732.807 and 765.822 and 734.474 and 726.404 and 778.428 and 781.83 and 731.073 and 806.374 and 872.538. Also, in the experiment on trabecular bone of femur (setting [2]), the Tb.N is 3.0955 and 3.1972 and 2.9789 and 2.9022 and 2.8329 and 3.2718 and 2.9757 and 3.3227 and 2.8446 and 3.0319 and 3.0922 and 3.1695 and 2.9848 and 3.092 and 2.9537. In addition, the Tb.Sp with trabecular bone of femur (setting [2]) is 0.3236 and 0.3094 and 0.3391 and 0.3456 and 0.3545 and 0.3064 and 0.3348 and 0.3029 and 0.3454 and 0.3314 and 0.3266 and 0.317 and 0.3334 and 0.3226 and 0.3354. Moreover, the Tb.Th with trabecular bone of femur (setting [2]) was 0.0422 and 0.0404 and 0.0416 and 0.0484 and 0.033 and 0.037 and 0.035 and 0.0363 and 0.0299 and 0.0308 and 0.0384 and 0.0447 and 0.0326 and 0.0382 and 0.0437.

These data come from publication PMC9636434, “Discovery of small molecule agonists of the Relaxin Family Peptide Receptor 2” (Communications Biology, 2022).
